Measured values reported in patent publication EP1027349B1, “TETRAHYDROFURAN PHOSPHATE- AND HYDROXY ESTERS, AS PRODRUGS FOR THE CORRESPONDING ANTIFUNGAL AGENT” (SCHERING CORPORATION, priority 1997, dated 1999).

Tests used:
[1] = tested on: Cryptococcus neoformans (n=9); assay: In vitro antifungal activity (MIC), NCCLS standard M27A; conditions: for MIC Range: Cryptococcus neoformans (n=9); for MIC: Cryptococcus neoformans, read-out: G mean MICs
[2] = Pharmacokinetic (metabolism) studies in human tissues and serum; type: in vitro ADME; conditions: result in words
Aspergillus fumigatus = assay: Pulmonary Aspergillus fumigatus infection model in mice (Loebenberg et al.)
[3] = tested on: Aspergillus species (n=30); assay: In vitro antifungal activity (MIC), Espinel-Ingroff's methodology; conditions: for MIC: Aspergillus, read-out: G mean MICs; for MIC Range: Aspergillus species (n=30)
Candida species (n=41) = assay: In vitro antifungal activity (MIC), NCCLS standard M27A; conditions: for MIC: Candida, read-out: G mean MICs; for MIC Range: Candida species (n=41)
[4] = Antifungal activity in in vivo tests in mice; conditions: compared with itraconazole, fluconazole and azoles of USP 5,039,676 and WO 93/09114, result in words
[5] = Plasma concentrations and PK parameters of the compound of formula IV in mice after intravenous administration of di-NMG salt prodrugs; type: in vivo, mouse; set-up: AUC: unit not given here; conditions: for Concentrations of the compound of formula IV in pooled mouse plasma, Pool 1 / Concentrations of the compound of formula IV in pooled mouse plasma, Pool 2: 2 mice/pool; for AUC: Table 3 summary: area under the curve from time zero to 24 hrs of the compound of formula IV in mouse plasma; for AUC / Bioavallability: intravenous, 20 mg/kg formula IV dose equivalent of the di-NMG salt in sterile water; for Bioavallability: of the compound of formula IV in mouse plasma
[6] = 0.017 hr (1 min) after intravenous administration of 20 mg/kg compound of formula IV dose equivalent of the di-NMG salt in sterile water
[7] = 0.017 hr (1 min) after intravenous administration of 20 mg/kg compound of formula IV dose equivalent of the di-NMG salt in sterile water, mean of 2 pools
[8] = 0.05 hr (3 min) after intravenous administration of 20 mg/kg compound of formula IV dose equivalent of the di-NMG salt in sterile water
[9] = 0.05 hr (3 min) after intravenous administration of 20 mg/kg compound of formula IV dose equivalent of the di-NMG salt in sterile water, mean of 2 pools
[10] = 0.083 hr (5 min) after intravenous administration of 20 mg/kg compound of formula IV dose equivalent of the di-NMG salt in sterile water
[11] = 0.083 hr (5 min) after intravenous administration of 20 mg/kg compound of formula IV dose equivalent of the di-NMG salt in sterile water, mean of 2 pools
[12] = 0.25 hr (15 min) after intravenous administration of 20 mg/kg compound of formula IV dose equivalent of the di-NMG salt in sterile water
[13] = 0.25 hr (15 min) after intravenous administration of 20 mg/kg compound of formula IV dose equivalent of the di-NMG salt in sterile water, mean of 2 pools
[14] = 0.5 hr (30 min) after intravenous administration of 20 mg/kg compound of formula IV dose equivalent of the di-NMG salt in sterile water
[15] = 0.5 hr (30 min) after intravenous administration of 20 mg/kg compound of formula IV dose equivalent of the di-NMG salt in sterile water, mean of pools
[16] = 1 hr. after intravenous administration of 20 mg/kg compound of formula IV dose equivalent of the di-NMG salt in sterile water
[17] = 1 hr. after intravenous administration of 20 mg/kg compound of formula IV dose equivalent of the di-NMG salt in sterile water, mean of 2 pools
[18] = 3 hr. after intravenous administration of 20 mg/kg compound of formula IV dose equivalent of the di-NMG salt in sterile water
[19] = 3 hr. after intravenous administration of 20 mg/kg compound of formula IV dose equivalent of the di-NMG salt in sterile water, mean of 2 pools
[20] = 6 hr. after intravenous administration of 20 mg/kg compound of formula IV dose equivalent of the di-NMG salt in sterile water
[21] = 6 hr. after intravenous administration of 20 mg/kg compound of formula IV dose equivalent of the di-NMG salt in sterile water, mean of 2 pools
[22] = 24 hr. after intravenous administration of 20 mg/kg compound of formula IV dose equivalent of the di-NMG salt in sterile water
[23] = 24 hr. after intravenous administration of 20 mg/kg compound of formula IV dose equivalent of the di-NMG salt in sterile water, mean of 2 pools

Row | SMILES | MIC Range [1] [µg/mL] | MIC [1] [µg/mL] | MIC [3] [µg/mL] | MIC (Candida species (n=41)) [µg/mL] | antifungal activity in in vivo tests [4] | MIC Range [3] [µg/mL] | MIC Range (Candida species (n=41)) [µg/mL] | Concentrations of the compound of formula IV in pooled mouse plasma, Pool 1 [5, 6] [ng/mL] | Concentrations of the compound of formula IV in pooled mouse plasma, Pool 2 [5, 6] [ng/mL] | Concentrations of the compound of formula IV in pooled mouse plasma, Mean [5, 7] [ng/mL] | Concentrations of the compound of formula IV in pooled mouse plasma, Pool 1 [5, 8] [ng/mL] | Concentrations of the compound of formula IV in pooled mouse plasma, Pool 2 [5, 8] [ng/mL] | Concentrations of the compound of formula IV in pooled mouse plasma, Mean [5, 9] [ng/mL] | Concentrations of the compound of formula IV in pooled mouse plasma, Pool 1 [5, 10] [ng/mL] | Concentrations of the compound of formula IV in pooled mouse plasma, Pool 2 [5, 10] [ng/mL] | Concentrations of the compound of formula IV in pooled mouse plasma, Mean [5, 11] [ng/mL] | Concentrations of the compound of formula IV in pooled mouse plasma, Pool 1 [5, 12] [ng/mL] | Concentrations of the compound of formula IV in pooled mouse plasma, Pool 2 [5, 12] [ng/mL] | Concentrations of the compound of formula IV in pooled mouse plasma, Mean [5, 13] [ng/mL] | Concentrations of the compound of formula IV in pooled mouse plasma, Pool 1 [5, 14] [ng/mL] | also measured
1 | CC[C@@H]([C@H](C)OC(=O)CCCOP(=O)(O)O)n1ncn(-c2ccc(N3CCN(c4ccc(OC[C@@H]5CO[C@@](Cn6cncn6)(c6ccc(F)cc6F)C5)cc4)CC3)cc2)c1=O [Formula II] | 0.125 to 32 | 1.9 | 5.9 | 7.5 |  |  |  |  |  |  |  |  |  |  |  |  |  |  |  |  | metabolism [2]: metabolized to the compound of formula IV via the metabolite represented by formula III; survival (Aspergillus fumigatus; doses of 10 mg/kg, mice with a pulmonary Aspergillus fumigatus infection): 70%
2 | CC[C@@H]([C@H](C)O)n1ncn(-c2ccc(N3CCN(c4ccc(OC[C@@H]5CO[C@@](Cn6cncn6)(c6ccc(F)cc6F)C5)cc4)CC3)cc2)c1=O [Formula IV, reference compound] | ≤0.0150 to 0.5 | 0.04 | 0.1 | 0.2 | unexpectedly better than that of existing antifungal agents | ≤0.0156 to 1 | ≤0.0156 to 8 |  |  |  |  |  |  |  |  |  |  |  |  |  | 
3 | CC[C@@H]([C@H](C)OC(=O)CCCOP(=O)(O)O)n1ncn(-c2ccc(N3CCN(c4ccc(OC[C@@H]5CO[C@@](Cn6cncn6)(c6ccc(F)cc6F)C5)cc4)CC3)cc2)c1=O [Formula II.2NMG] |  |  |  |  |  |  |  | 171 | 164 | 168 | 378 | 297 | 338 | 798 | 817 | 808 | 1570 | 2720 | 2150 | 3020 | Concentrations of the compound of formula IV in pooled mouse plasma, Pool 2 [5, 14]: 2340 ng/mL; Concentrations of the compound of formula IV in pooled mouse plasma, Mean [5, 15]: 2680 ng/mL; Concentrations of the compound of formula IV in pooled mouse plasma, Pool 1 [5, 16]: 4460 ng/mL; Concentrations of the compound of formula IV in pooled mouse plasma, Pool 2 [5, 16]: 3950 ng/mL; Concentrations of the compound of formula IV in pooled mouse plasma, Mean [5, 17]: 4210 ng/mL; Concentrations of the compound of formula IV in pooled mouse plasma, Pool 1 [5, 18]: 5160 ng/mL; Concentrations of the compound of formula IV in pooled mouse plasma, Pool 2 [5, 18]: 5630 ng/mL; Concentrations of the compound of formula IV in pooled mouse plasma, Mean [5, 19]: 5400 ng/mL; Concentrations of the compound of formula IV in pooled mouse plasma, Pool 1 [5, 20]: 5960 ng/mL; Concentrations of the compound of formula IV in pooled mouse plasma, Pool 2 [5, 20]: 3590 ng/mL; Concentrations of the compound of formula IV in pooled mouse plasma, Mean [5, 21]: 4780 ng/mL; Concentrations of the compound of formula IV in pooled mouse plasma, Pool 1 [5, 22]: 915 ng/mL; Concentrations of the compound of formula IV in pooled mouse plasma, Pool 2 [5, 22]: 992 ng/mL; Concentrations of the compound of formula IV in pooled mouse plasma, Mean [5, 23]: 954 ng/mL; AUC [5]: 79.1; Bioavallability [5]: 65%
4 | CC[C@@H]([C@H](C)OC(=O)CCCCOP(=O)(O)O)n1ncn(-c2ccc(N3CCN(c4ccc(OC[C@@H]5CO[C@@](Cn6cncn6)(c6ccc(F)cc6F)C5)cc4)CC3)cc2)c1=O [Formula V.2NMG, reference compound] |  |  |  |  |  |  |  | 0 | 0 | 0 | 738 | 663 | 723 | 1040 | 1430 | 1240 | 1220 | 407 | 814 | 1990 | Concentrations of the compound of formula IV in pooled mouse plasma, Mean [5, 15]: 1990 ng/mL; Concentrations of the compound of formula IV in pooled mouse plasma, Pool 1 [5, 16]: 2730 ng/mL; Concentrations of the compound of formula IV in pooled mouse plasma, Pool 2 [5, 16]: 2630 ng/mL; Concentrations of the compound of formula IV in pooled mouse plasma, Mean [5, 17]: 2680 ng/mL; Concentrations of the compound of formula IV in pooled mouse plasma, Pool 1 [5, 18]: 923 ng/mL; Concentrations of the compound of formula IV in pooled mouse plasma, Pool 2 [5, 18]: 2510 ng/mL; Concentrations of the compound of formula IV in pooled mouse plasma, Mean [5, 19]: 1720 ng/mL; Concentrations of the compound of formula IV in pooled mouse plasma, Pool 1 [5, 20]: 2590 ng/mL; Concentrations of the compound of formula IV in pooled mouse plasma, Pool 2 [5, 20]: 1900 ng/mL; Concentrations of the compound of formula IV in pooled mouse plasma, Mean [5, 21]: 2250 ng/mL; Concentrations of the compound of formula IV in pooled mouse plasma, Pool 1 [5, 22]: 447 ng/mL; Concentrations of the compound of formula IV in pooled mouse plasma, Pool 2 [5, 22]: 515 ng/mL; Concentrations of the compound of formula IV in pooled mouse plasma, Mean [5, 23]: 481 ng/mL; AUC [5]: 36.7; Bioavallability [5]: 30%
5 | OC(Cn1cncn1)(Cn1cncn1)c1ccc(F)cc1F [fluconazole, reference compound] |  |  |  |  |  |  |  |  |  |  |  |  |  |  |  |  |  |  |  |  | activity in Aspergillus pulmonary infection model (Aspergillus fumigatus; mice, result in words): inactive
6 | CC[C@@H]([C@H](C)OC(=O)CCCO)n1ncn(-c2ccc(N3CCN(c4ccc(OC[C@@H]5CO[C@@](Cn6cncn6)(c6ccc(F)cc6F)C5)cc4)CC3)cc2)c1=O [Formula III, 2(S)-[4-{4-{4-{4-[[(R-Cis) -2-(2,4-difluorophenyl)-tetrahydro-2-(1H-1,2,4-triazol-1-ylmethyl)-4-furanyl]methoxy]phenyl]-1-piperazinyl]phenyl]-4,5-dihydro-5-oxo-1H-1,2,4-triazol-1-yl]-1-(S)-methylbutyl-4-hydroxy-butanoate] | 0.0156 to 0.5 | 0.09 | 0.2 | 0.3 | unexpectedly better than that of existing antifungal agents | 0.0313 to 2 | ≤ 0.0156 to 8 |  |  |  |  |  |  |  |  |  |  |  |  |  | 
